Test results: patent US12570675B2, “Boronic acid compounds” (LG CHEM, LTD., priority 2020, dated 2026)

Biological target: Proteasome chymotrypsin-like activity (S26 protein from RPMI8226 cells) (Homo sapiens, UniProt P28074)
Test: not given
Type: biochemical
Conditions: S26 protein from RPMI8226 cell extract 2 ug/well, substrate 20 uM, 37° C., 90 minutes; read-out: Proteasome chymotrypsin-like activity inhibition IC50
Procedure, shortened: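 Inhibition is measured in crude proteasome (S26) from RPMI8226 cells at 2 ug/well, using 20 uM substrate specific to each activity: Suc-LLVY-AMC for chymotrypsin-like, Z-LLE-AMC for caspase-like. Compounds span a dilution series from 10 uM.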

Sequence of Proteasome chymotrypsin-like activity (S26 protein from RPMI8226 cells) (P28074 60-263 limits assumed): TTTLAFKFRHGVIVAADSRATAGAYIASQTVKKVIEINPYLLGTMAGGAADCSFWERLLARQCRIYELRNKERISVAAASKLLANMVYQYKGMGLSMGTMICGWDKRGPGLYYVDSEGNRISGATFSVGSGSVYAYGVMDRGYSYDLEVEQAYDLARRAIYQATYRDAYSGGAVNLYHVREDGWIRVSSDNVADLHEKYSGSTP

How did the IC50 turn out when `Cc1cnc(C(=O)NCC2=NOC(Cc3ccccc3)(C(=O)N[C@@H](CC(C)C)B(O)O)C2)cn1` (stereo partly drawn) [Example 151, [(1R)-1-[[5-benzyl-3-[[(5-methylpyrazin-2-carbonyl)amino]methyl]-4H-1,2-oxazol-5-carbonyl]amino]-3-methyl-butyl]boronic acid] was run?
Its IC50 is less than 0.01 µM.

With `CC(C)C[C@H](NC(=O)C1(Cc2ccccc2)CC(CNC(=O)c2n[nH]c3ccccc23)=NO1)B(O)O` (stereo partly drawn) [Example 200, ((1R)-1-(3-((1H-indazol-3-carboxamido)methyl)-5-benzyl-4,5-dihydroisoxazol-5-carboxamido)-3-methylbutyl)boronic acid] as the molecule, how does the IC50 read?
The IC50 was less than 0.01 µM.

With `CC(C)C[C@H](NC(=O)C1(Cc2ccccc2)CC(CNC(=O)c2cccn3ccnc23)=NO1)B(O)O` (stereo partly drawn) [Example 132, ((1R)-1-(5-benzyl-3-((imidazo[1,2-a]pyridin-8-carboxamido)methyl)-4,5-dihydroisoxazol-5-carboxamido)-3-methylbutyl)boronic acid] as the molecule, how does the IC50 read?
Its IC50 is less than 0.01 µM.

How did the IC50 turn out when `CC(C)C[C@H](NC(=O)C1(Cc2ccccc2)CC(COCc2nccc3ccccc23)=NO1)B(O)O` (stereo partly drawn) [Example 49, ((1R)-1-(5-benzyl-3-((isoquinolin-1-ylmethoxy)methyl)-4,5-dihydroisoxazol-5-carboxamido)-3-methylbutyl)boronic acid] was run?
The IC50 was less than 0.01 µM.

For `CC(C)C[C@H](NC(=O)C1ON=C(CNC(=O)c2nccc3ccccc23)C1C)B(O)O` (stereo partly drawn) [Example 65, ((1R)-1-(3-((isoquinolin-1-carboxamido)methyl)-4-methyl-4,5-dihydroisoxazol-5-carboxamido)-3-methylbutyl)boronic acid], which IC50 is on record?
Its IC50 is less than 0.25 µM.

`Cc1cccc(CC2(C(=O)N[C@@H](CC(C)C)B(O)O)CC(CNC(=O)c3cc(-c4ccccn4)nn3C(C)C)=NO2)c1` (stereo partly drawn) [Example 245, ((1R)-1-(3-((1-isopropyl-3-(pyridin-2-yl)-1H-pyrazol-5-carboxamido)methyl)-5-(3-methylbenzyl)-4,5-dihydroisoxazol-5-carboxamido)-3-methylbutyl)boronic acid] was tested. Which IC50 did it give?
Its IC50 is less than 0.01 µM.

For `CC(C)C[C@H](NC(=O)C1(Cc2cccc(Cl)c2)CC(CNC(=O)c2cccn3ccnc23)=NO1)B(O)O` (stereo partly drawn) [Example 177, ((1R)-1-(5-(3-chlorobenzyl)-3-((imidazo[1,2-a]pyridin-8-carboxamido)methyl)-4,5-dihydroisoxazol-5-carboxamido)-3-methylbutyl)boronic acid], which IC50 is on record?
The IC50 was less than 0.01 µM.

Which IC50 does the source give for `O=C(N[C@@H](Cc1ccccc1)B(O)O)C1(Cc2ccccc2)CC(COc2ccc3ccccc3c2)=NO1` (stereo partly drawn) [Example 263, ((1R)-1-(5-benzyl-3-((naphthalen-2-yloxy)methyl)-4,5-dihydroisoxazol-5-carboxamido)-2-phenylethyl)boronic acid] here?
Its IC50 is less than 0.05 µM.

`CC(C)C[C@H](NC(=O)C1(Cc2ccc(Cl)cc2)CC(CNC(=O)c2nccc3ccccc23)=NO1)B(O)O` (stereo partly drawn) [Example 101, ((1R)-1-(5-(4-chlorobenzyl)-3-((isoquinolin-1-carboxamido)methyl)-4,5-dihydroisoxazol-5-carboxamido)-3-methylbutyl)boronic acid] was tested. Which IC50 did it give?
Its IC50 is less than 0.01 µM.

Which IC50 does the source give for `Cc1nn(C(C)C)cc1C(=O)NCC1=NOC(Cc2ccccc2)(C(=O)N[C@@H](CC(C)C)B(O)O)C1` (stereo partly drawn) [Example 206, ((1R)-1-(5-benzyl-3-((1-isopropyl-3-methyl-1H-pyrazol-4-carboxamido)methyl)-4,5-dihydroisoxazol-5-carboxamido)-3-methylbutyl)boronic acid] here?
Its IC50 is less than 0.01 µM.

With `CC(C)C[C@H](NC(=O)C1CC(c2ccc3ccccc3n2)=NO1)B(O)O` (stereo partly drawn) [Example 21, ((1R)-3-methyl-1-(3-(quinolin-2-yl)-4,5-dihydroisoxazol-5-carboxamido)butyl)boronic acid] as the molecule, how does the IC50 read?
Its IC50 is less than 0.25 µM.

With `CC(C)C[C@H](NC(=O)[C@]1(Cc2ccccc2)CC(c2cccc(C(C)(C)C)c2)=NO1)B(O)O` [Example 24, ((R)-1-((S)-5-benzyl-3-(3-(tert-butyl)phenyl)-4,5-dihydroisoxazol-5-carboxamido)-3-methylbutyl)boronic acid] as the molecule, how does the IC50 read?
Its IC50 is less than 0.5 µM.

Which IC50 does the source give for `CC(C)C[C@H](NC(=O)C1CC(C2CC2)=NO1)B(O)O` (stereo partly drawn) [Example 10, ((1R)-1-(3-cyclopropyl-4,5-dihydroisoxazol-5-carboxamido)-3-methylbutyl)boronic acid] here?
Its IC50 is less than 0.5 µM.

With `Cc1cccc(C(=O)NCC2=NOC(Cc3ccccc3)(C(=O)N[C@@H](CC(C)C)B(O)O)C2)c1` (stereo partly shown) [Example 307] as the molecule, how does the IC50 read?
Its IC50 is less than 0.01 µM.

For `CC(C)C[C@H](NC(=O)C1(Cc2ccccc2)CC(CNC(=O)c2nccnc2N)=NO1)B(O)O` (stereo partly drawn) [Example 161, ((1R)-1-(3-((3-aminopyrazin-2-carboxamido)methyl)-5-benzyl-4,5-dihydroisoxazol-5-carboxamido)-3-methylbutyl)boronic acid], which IC50 is on record?
The IC50 was less than 0.01 µM.

Which IC50 does the source give for `CC(C)C[C@H](NC(=O)C1(Cc2ccccc2)CC(CNC(=O)c2cccc(C#N)n2)=NO1)B(O)O` (stereo partly shown) [Example 323] here?
Its IC50 is less than 0.01 µM.

With `O=C(N[C@@H](Cc1ccccc1)B(O)O)C1(Cc2ccccc2)CC(COc2ccccc2)=NO1` (stereo partly drawn) [Example 255, ((1R)-1-(5-benzyl-3-(phenoxymethyl)-4,5-dihydroisoxazol-5-carboxamido)-2-phenylethyl)boronic acid] as the molecule, how does the IC50 read?
The IC50 was less than 0.025 µM.

How did the IC50 turn out when `CC(C)C[C@H](NC(=O)C1(Cc2ccccc2)CC(COc2ccccc2)=NO1)B(O)O` (stereo partly shown) [Example 254] was run?
Its IC50 is less than 0.01 µM.

For `CC(C)C[C@H](NC(=O)C1(Cc2ccccc2)CC(CNC(=O)c2ccnn2C)=NO1)B(O)O` (stereo partly drawn) [Example 176, ((1R)-1-(5-benzyl-3-((1-methyl-1H-pyrazol-5-carboxamido)methyl)-4,5-dihydroisoxazol-5-carboxamido)-3-methylbutyl)boronic acid], which IC50 is on record?
The IC50 was less than 0.025 µM.

How did the IC50 turn out when `CC(C)C[C@H](NC(=O)C1(Cc2ccccc2)CC(CNC(=O)c2cccc(C#N)c2)=NO1)B(O)O` (stereo partly shown) [Example 316] was run?
Its IC50 is less than 0.01 µM.

How did the IC50 turn out when `CC(C)C[C@H](NC(=O)C1(C(O)c2ccccc2)CC(CNC(=O)c2nccc3ccccc23)=NO1)B(O)O` (stereo partly drawn) [Example 131, ((1R)-1-(5-(hydroxy(phenyl)methyl)-3-((isoquinolin-1-carboxamido)methyl)-4,5-dihydroisoxazol-5-carboxamido)-3-methylbutyl)boronic acid] was run?
Its IC50 is less than 0.01 µM.

`CC(C)C[C@H](NC(=O)C1(CC(C)C)CC(CNC(=O)c2nccc3ccccc23)=NO1)B(O)O` (stereo partly drawn) [Example 91, ((1R)-1-(5-isobutyl-3-((isoquinolin-1-carboxamido)methyl)-4,5-dihydroisoxazol-5-carboxamido)-3-methylbutyl)boronic acid] was tested. Which IC50 did it give?
The IC50 was less than 0.025 µM.

For `CC(C)C[C@H](NC(=O)C1CC(C(=O)Nc2cccc3ccccc23)=NO1)B(O)O` (stereo partly drawn) [Example 76, ((1R)-3-methyl-1-(3-(naphthalen-1-ylcarbamoyl)-4,5-dihydroisoxazol-5-carboxamido)butyl)boronic acid], which IC50 is on record?
The IC50 was less than 0.05 µM.

`CC(C)C[C@H](NC(=O)C1CC(c2ccc(C(C)(C)C)cc2)=NO1)B(O)O` (stereo partly drawn) [Example 15, ((1R)-1-(3-(4-(tert-butyl)phenyl)-4,5-dihydroisoxazol-5-carboxamido)-3-methylbutyl)boronic acid] was tested. Which IC50 did it give?
The IC50 was less than 0.25 µM.

How did the IC50 turn out when `CC(C)C[C@H](NC(=O)C1CC(c2ccccc2)=NO1)B(O)O` (stereo partly drawn) [Example 1, ((1R)-3-methyl-1-(3-phenyl-4,5-dihydroisoxazol-5-carboxamido)butyl)boronic acid] was run?
Its IC50 is less than 0.5 µM.

For `CC(C)[C@H](NC(=O)C1(Cc2ccccc2)CC(CNC(=O)c2cc(Cl)ccc2Cl)=NO1)B(O)O` (stereo partly drawn) [Example 315, ((1R)-1-(5-benzyl-3-((2,5-dichlorobenzamido)methyl)-4,5-dihydroisoxazol-5-carboxamido)-2-methylpropyl)boronic acid], which IC50 is on record?
Its IC50 is less than 0.01 µM.

`CC(C)[C@H](NC(=O)C1(Cc2ccccc2)CC(CNC(=O)c2cccc3ccccc23)=NO1)B(O)O` (stereo partly drawn) [Example 304, ((1R)-1-(3-((1-naphthamido)methyl)-5-benzyl-4,5-dihydroisoxazol-5-carboxamido)-2-methylpropyl)boronic acid] was tested. Which IC50 did it give?
The IC50 was less than 0.01 µM.

For `CC(C)C[C@H](NC(=O)C1(Cc2ccccc2)CC(CNC(=O)c2ccnnc2)=NO1)B(O)O` (stereo partly drawn) [Example 166, ((1R)-1-(5-benzyl-3-((pyridazin-4-carboxamido)methyl)-4,5-dihydroisoxazol-5-carboxamido)-3-methylbutyl)boronic acid], which IC50 is on record?
Its IC50 is less than 0.025 µM.

`CC(C)C[C@H](NC(=O)C1(Cc2ccccc2)CC(CNS(=O)(=O)c2cccc3cccnc23)=NO1)B(O)O` (stereo partly drawn) [Example 144, ((1R)-1-(5-benzyl-3-((quinolin-8-sulfonamido)methyl)-4,5-dihydroisoxazol-5-carboxamido)-3-methylbutyl)boronic acid] was tested. Which IC50 did it give?
The IC50 was less than 0.01 µM.

Biological target: Proteasome caspase-like activity (S26 protein from RPMI8226 cells) (Homo sapiens (Human), UniProt P28072)
Sequence (P28072 whole entry): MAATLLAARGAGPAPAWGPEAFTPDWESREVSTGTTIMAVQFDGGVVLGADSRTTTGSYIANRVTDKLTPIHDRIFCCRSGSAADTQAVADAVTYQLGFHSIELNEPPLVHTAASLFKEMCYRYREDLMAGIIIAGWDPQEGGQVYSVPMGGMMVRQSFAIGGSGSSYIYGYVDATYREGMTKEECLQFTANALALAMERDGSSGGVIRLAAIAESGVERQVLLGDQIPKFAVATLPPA
Test: Proteasome caspase-like activity inhibition (Z-Leu-Leu-Glu-AMC fluorogenic substrate, RPMI8226 cell extract)
Type: biochemical
Conditions: S26 protein from RPMI8226 cell extract 2 ug/well, substrate 20 uM, 37° C., 90 minutes
Experimental: The abilities to inhibit the proteasome activity of the compounds described in the Examples of the present invention and boronic acid drugs were evaluated as follows.
RPMI8226 cells, which is a multiple myeloma cell line, were cultured and then separated by a centrifuge, and washed twice with phosphate buffered saline (PBS). 20 mM of a tris-HCl (pH 8.0) buffer solution was added to the washed cells, and the cells were disrupted by a homogenizer and centrifuged to obtain S26 protein from the supernatant. Suc-Leu-Leu-Val-Tyr-AMC, for a fluorogenic substrate for the chymotrypsin-like activity of the proteasome, and Z-Leu-Leu-Glu-AMC, for a fluorogenic substrate for the caspase-like activity, were purchased from Calbiochem, EMD Millipore and used. Into each well of a 96-well plate (opaque, black round bottom), 20 ul of the S26 protein (final RPMI8226 cell extract concentration: 2 ug/well), 10 ul of S26 proteasome inhibitor serially diluted from 10 uM (final DMSO concentration: 0.5%), and 20 ul of the fluorogenic substrate for the proteasome chymotrypsin-like or caspase-like activity (final concentration: 20 uM) were added and mixed and allowed to react in a 37° C. incubator for 90 minutes. The fluorescence of the fluorogenic substrate was measured by FlexStation II Fluorometer (Molecular Devices). The fluorescence inhibited by the compound diluted at each concentration was measured as the relative percentage value for the amount obtained from the treatment only with the S26 protein and the fluorogenic substrate. IC50 (inhibitory concentration 50) was expressed in terms of a concentration that inhibits 50% of the maximum fluorescence induced by the fluorogenic substrate.

Which IC50 does the source give for `Cc1cnc(C(=O)NCC2=NOC(Cc3ccccc3)(C(=O)N[C@@H](CC(C)C)B(O)O)C2)cn1` (stereo partly drawn) [Example 151, [(1R)-1-[[5-benzyl-3-[[(5-methylpyrazin-2-carbonyl)amino]methyl]-4H-1,2-oxazol-5-carbonyl]amino]-3-methyl-butyl]boronic acid] here?
Its IC50 is greater than 0.25 µM.

Which IC50 does the source give for `CC(C)C[C@H](NC(=O)C1(Cc2ccccc2)CC(CNC(=O)c2n[nH]c3ccccc23)=NO1)B(O)O` (stereo partly drawn) [Example 200, ((1R)-1-(3-((1H-indazol-3-carboxamido)methyl)-5-benzyl-4,5-dihydroisoxazol-5-carboxamido)-3-methylbutyl)boronic acid] here?
The IC50 was greater than 0.1 µM.

`CC(C)C[C@H](NC(=O)C1(Cc2ccccc2)CC(CNC(=O)c2cccn3ccnc23)=NO1)B(O)O` (stereo partly drawn) [Example 132, ((1R)-1-(5-benzyl-3-((imidazo[1,2-a]pyridin-8-carboxamido)methyl)-4,5-dihydroisoxazol-5-carboxamido)-3-methylbutyl)boronic acid] was tested. Which IC50 did it give?
Its IC50 is greater than 0.25 µM.

`CC(C)C[C@H](NC(=O)C1(Cc2ccccc2)CC(COCc2nccc3ccccc23)=NO1)B(O)O` (stereo partly drawn) [Example 49, ((1R)-1-(5-benzyl-3-((isoquinolin-1-ylmethoxy)methyl)-4,5-dihydroisoxazol-5-carboxamido)-3-methylbutyl)boronic acid] was tested. Which IC50 did it give?
Its IC50 is greater than 1 µM.

With `CC(C)C[C@H](NC(=O)CNC(=O)c1cc(Cl)ccc1Cl)B(O)O` [ixazomib] as the molecule, how does the IC50 read?
Its IC50 is 0.007 µM.
